In article PMC7162861, “Synthesis, cytotoxicity, pharmacokinetic profile, binding with DNA and BSA of new imidazo[1,2-a]pyrazine-benzo[d]imidazol-5-yl hybrids” (Scientific Reports, 2020):

Assays:
MOLT-4 = test: NCI cytotoxicity screen, Leukemia panel; type: cell-based; conditions: Homo sapiens, MOLT-4, MOLT-4; single dose 10 µM; negative = lethal; read-out: Percent growth inhibition
Description: (§1) Cytotoxicity was performed at National Cancer Institute (NCI), Bethesda, USA as per their protocols.

HL-60(TB) = test: NCI cytotoxicity screen, Leukemia panel; type: cell-based; conditions: Homo sapiens, HL-60, HL-60(TB); single dose 10 µM; negative = lethal; read-out: Percent growth inhibition
Description: as §1

SR = test: NCI cytotoxicity screen, Leukemia panel; type: cell-based; conditions: Homo sapiens, single dose 10 µM, negative = lethal, read-out: Percent growth inhibition
Description: as §1

CCRF-CEM = test: NCI cytotoxicity screen, Leukemia panel; type: cell-based; conditions: Homo sapiens, single dose 10 µM, negative = lethal, read-out: Percent growth inhibition
Description: as §1

TK-10 = test: NCI cytotoxicity screen, Renal Cancer panel; type: cell-based, human; conditions: Homo sapiens, single dose 10 µM, negative = lethal, read-out: Percent growth inhibition
Description: as §1

786-0 = test: NCI cytotoxicity screen, Renal Cancer panel; type: cell-based, human; conditions: Homo sapiens, single dose 10 µM, negative = lethal, read-out: Percent growth inhibition
Description: as §1

NCI-H226 = test: NCI cytotoxicity screen, Non-Small Cell Lung Cancer panel; type: cell-based, human; conditions: Homo sapiens, single dose 10 µM, negative = lethal, read-out: Percent growth inhibition
Description: as §1

NCI-522 = test: as above; type: cell-based, human; conditions: Homo sapiens; NCI-522; single dose 10 µM; negative = lethal; read-out: Percent growth inhibition
Description: as §1

NCI-H322M = test: as above; type: cell-based, human; conditions: Homo sapiens, single dose 10 µM, negative = lethal, read-out: Percent growth inhibition
Description: as §1

NCI-H23 = test: as above; type: cell-based, human; conditions: Homo sapiens, single dose 10 µM, negative = lethal, read-out: Percent growth inhibition
Description: as §1

M14 = test: NCI cytotoxicity screen, Melanoma panel; type: cell-based, human; conditions: Homo sapiens, single dose 10 µM, negative = lethal, read-out: Percent growth inhibition
Description: as §1

LOX IMVI = test: NCI cytotoxicity screen, Melanoma panel; type: cell-based, human; conditions: Homo sapiens, single dose 10 µM, negative = lethal, read-out: Percent growth inhibition
Description: as §1

UACC-62 = test: NCI cytotoxicity screen, Melanoma panel; type: cell-based, human; conditions: Homo sapiens, single dose 10 µM, negative = lethal, read-out: Percent growth inhibition
Description: as §1

OVCAR-5 = test: NCI cytotoxicity screen, Ovarian Cancer panel; type: cell-based; conditions: Homo sapiens, single dose 10 µM, negative = lethal, read-out: Percent growth inhibition
Description: as §1

SK-OV-3 = test: NCI cytotoxicity screen, Ovarian Cancer panel; type: cell-based; conditions: Homo sapiens, single dose 10 µM, negative = lethal, read-out: Percent growth inhibition
Description: as §1

OVCAR-8 = test: NCI cytotoxicity screen, Ovarian Cancer panel; type: cell-based; conditions: Homo sapiens, single dose 10 µM, negative = lethal, read-out: Percent growth inhibition
Description: as §1

IGROV1 = test: NCI cytotoxicity screen, Ovarian Cancer panel; type: cell-based; conditions: Homo sapiens, IGROV-1, single dose 10 µM, negative = lethal, read-out: Percent growth inhibition
Description: as §1

OVCAR-4 = test: NCI cytotoxicity screen, Ovarian Cancer panel; type: cell-based; conditions: Homo sapiens; OVCAR-4; single dose 10 µM; negative = lethal; read-out: Percent growth inhibition
Description: as §1

NCI/ADR-RES = test: NCI cytotoxicity screen, Ovarian Cancer panel; type: cell-based; conditions: Homo sapiens, single dose 10 µM, negative = lethal, read-out: Percent growth inhibition
Description: as §1

A498 = test: NCI cytotoxicity screen, Renal Cancer panel; type: cell-based; conditions: Homo sapiens, single dose 10 µM, negative = lethal, read-out: Percent growth inhibition
Description: as §1

SN12C = test: NCI cytotoxicity screen, Renal Cancer panel; type: cell-based; conditions: Homo sapiens, single dose 10 µM, negative = lethal, read-out: Percent growth inhibition
Description: as §1

ACHN = test: NCI cytotoxicity screen, Renal Cancer panel; type: cell-based; conditions: Homo sapiens, single dose 10 µM, negative = lethal, read-out: Percent growth inhibition
Description: as §1

RXF 393 = test: NCI cytotoxicity screen, Renal Cancer panel; type: cell-based; conditions: Homo sapiens, single dose 10 µM, negative = lethal, read-out: Percent growth inhibition
Description: as §1

UO-31 = test: NCI cytotoxicity screen, Renal Cancer panel; type: cell-based; conditions: Homo sapiens, single dose 10 µM, negative = lethal, read-out: Percent growth inhibition
Description: as §1

CAKI-1 = test: NCI cytotoxicity screen, Renal Cancer panel; type: cell-based; conditions: Homo sapiens; CAKI-1; single dose 10 µM; negative = lethal; read-out: Percent growth inhibition
Description: as §1

MDA-MB-231/ATCC = test: NCI cytotoxicity screen, Breast Cancer panel; type: cell-based; conditions: Homo sapiens, MDA-MB-231, read-out: Percent growth inhibition
Description: as §1

MCF7 = test: NCI cytotoxicity screen, Breast Cancer panel; type: cell-based; conditions: Homo sapiens, single dose 10 µM, negative = lethal, read-out: Percent growth inhibition
Description: as §1

HS 578 T = test: NCI cytotoxicity screen, Breast Cancer panel; type: cell-based; conditions: Homo sapiens; HS 578T; single dose 10 µM; negative = lethal; read-out: Percent growth inhibition
Description: as §1

T-47D = test: NCI cytotoxicity screen, Breast Cancer panel; type: cell-based; conditions: Homo sapiens, T47D, T-47D; single dose 10 µM; negative = lethal; read-out: Percent growth inhibition
Description: as §1

MDA-MB-468 = test: NCI cytotoxicity screen, Breast Cancer panel; type: cell-based; conditions: Homo sapiens, single dose 10 µM, negative = lethal, read-out: Percent growth inhibition
Description: as §1

BT-549 = test: NCI cytotoxicity screen, Breast Cancer panel; type: cell-based; conditions: Homo sapiens, single dose 10 µM, negative = lethal, read-out: Percent growth inhibition
Description: as §1

HOP-62 = test: NCI cytotoxicity screen, Non-Small Cell Lung Cancer panel; type: cell-based; conditions: Homo sapiens, single dose 10 µM, negative = lethal, read-out: Percent growth inhibition
Description: as §1

NCI-H460 = test: as above; type: cell-based; conditions: Homo sapiens, single dose 10 µM, negative = lethal, read-out: Percent growth inhibition
Description: as §1

A549/ATCC = test: as above; type: cell-based; conditions: Homo sapiens; A549/ATCC; single dose 10 µM; negative = lethal; read-out: Percent growth inhibition
Description: as §1

EXVX = test: as above; type: cell-based; conditions: Homo sapiens; EXVX; single dose 10 µM; negative = lethal; read-out: Percent growth inhibition
Description: as §1

DU-145 = test: NCI cytotoxicity screen, Prostate Cancer panel; type: cell-based, human; conditions: Homo sapiens, single dose 10 µM, negative = lethal, read-out: Percent growth inhibition
Description: as §1

PC-3 = test: NCI cytotoxicity screen, Prostate Cancer panel; type: cell-based, human; conditions: Homo sapiens, single dose 10 µM, negative = lethal, read-out: Percent growth inhibition
Description: as §1

[1] = Experimental log P, shake-flask method; type: physicochemical; conditions: n-octanol/phosphate buffer pH 7.4, read-out: Exp. Log P
Description: Partition coefficients or experimental log P values of all synthesized compounds (9–23, 30 and 31) were calculated using the shake-flask method. Log P values were determined using n-octanol and phosphate buffer (pH = 7.4) at 10:1 ratio of volumes. Stock solutions (10^−3 M) of compounds were prepared in DMSO. Glass vials were used to make final solutions i.e. stock solution (250 µL) and phosphate buffer (125 µL). To record the absorbance, wavelength was selected based on λmax of the respective compound. Initial absorbance (Ai) for every compound was noted consuming the stock solution in the buffer phase. Now added n-octanol to every vial and shaken well using a mechanical shaker for 50 minutes. To get separation of both phases, glass vials were centrifuged for 35 min. at 2500 rpm. Then, the layer of octanol was separated from glass vial. The final absorbance (Af) of each compound was recorded by using the buffer layer. The values of P for compounds were determined by the following equation (Eq. 8):8 P=Ai−Af/Af×Vw/Vo

OVCAR-3 = test: NCI cytotoxicity screen, Ovarian Cancer panel; type: cell-based, human; conditions: Homo sapiens; OVCAR-3; single dose 10 µM; negative = lethal; read-out: Percent growth inhibition
Description: as §1

HCC-2998 = test: NCI cytotoxicity screen, Colon Cancer panel; type: cell-based, human; conditions: Homo sapiens; HCC-2998; single dose 10 µM; negative = lethal; read-out: Percent growth inhibition
Description: as §1

KM12 = test: NCI cytotoxicity screen, Colon Cancer panel; type: cell-based, human; conditions: Homo sapiens, single dose 10 µM, negative = lethal, read-out: Percent growth inhibition
Description: as §1

SW-620 = test: NCI cytotoxicity screen, Colon Cancer panel; type: cell-based, human; conditions: Homo sapiens, single dose 10 µM, negative = lethal, read-out: Percent growth inhibition
Description: as §1

For `c1ccc2c(-c3cn4ccnc4c(-c4ccc5c(c4)ncn5C4CCCCC4)n3)cccc2c1` [Compound 12, 8-(1-cyclohexyl-1H-benzo[d]imidazol-5-yl)-6-(naphthalen-1-yl)imidazo[1,2-a]pyrazine], the inhibition at 10 µM (MOLT-4) was ~50%, the inhibition at 10 µM (HL-60(TB)) was ~50% and the inhibition at 10 µM (SR) was 10.9%. It also gave an inhibition at 10 µM (CCRF-CEM) of 27.2%, an inhibition at 10 µM (TK-10) of 5.82% and an inhibition at 10 µM (786-0) of 13.3%. It also gave an inhibition at 10 µM (NCI-H226) of 17.9%, an inhibition at 10 µM (NCI-522) of 33% and an inhibition at 10 µM (NCI-H322M) of 8.38%. It also gave an inhibition at 10 µM (NCI-H23) of 9.02%, an inhibition at 10 µM (M14) of 0.39% and an inhibition at 10 µM (LOX IMVI) of 11.4%. The inhibition at 10 µM (UACC-62) was 21%, the inhibition at 10 µM (OVCAR-5) was < 1% and the inhibition at 10 µM (SK-OV-3) was < 1%. It also gave an inhibition at 10 µM (OVCAR-8) of 24%, an inhibition at 10 µM (IGROV1) of 3.68% and an inhibition at 10 µM (OVCAR-4) of 15%. For the same compound, the inhibition at 10 µM (NCI/ADR-RES) was 11.8%, the inhibition at 10 µM (A498) was < 1% and the inhibition at 10 µM (SN12C) was 13.6%. The inhibition at 10 µM (ACHN) was 8.22%, the inhibition at 10 µM (RXF 393) was 0.15% and the inhibition at 10 µM (UO-31) was 37.9%. For the same compound, the inhibition at 10 µM (CAKI-1) was 20.7%, the inhibition at 10 µM (MDA-MB-231/ATCC) was 18.2% and the inhibition at 10 µM (MCF7) was 35.7%. The inhibition at 10 µM (HS 578 T) was 4.25%, the inhibition at 10 µM (T-47D) was 22% and the inhibition at 10 µM (MDA-MB-468) was 5.23%. The inhibition at 10 µM (BT-549) was 1.57%, the inhibition at 10 µM (HOP-62) was 13.2% and the inhibition at 10 µM (NCI-H460) was 7.35%. The inhibition at 10 µM (A549/ATCC) was 36.2%, the inhibition at 10 µM (EXVX) was 29.6% and the melting point was 199 to 202 °C. It also gave an inhibition at 10 µM (DU-145) of 6.09%, an inhibition at 10 µM (PC-3) of 13.3% and a logP [1] of 1.48. The inhibition at 10 µM (OVCAR-3) was 4.29%, the inhibition at 10 µM (HCC-2998) was < 1% and the inhibition at 10 µM (KM12) was 8.69%. The inhibition at 10 µM (SW-620) was 1.43%.
